Experimental data taken from US7435805B2, “O-alkyl macrolide and azalide derivatives and regioselective process for their preparation” (GlaxpSmithkline Istrazivacki, priority 2003, dated 2008).
In brackets after ≈: the same amount, converted by molar mass.

How the values were obtained:
S. pyogenes B0542 = experiment: microtiter broth serial dilution MIC, S. pyogenes B0542; format: cell-based, Streptococcus pyogenes; conditions: unit assumed
From the text: (§1) In particular, the compounds of the invention may be active against strains of Staphylococcus aureus, Streptococcus pneumoniae, Moraxella catarrhalis, Streptococcus pyogenes, or Haemophilus influenzae. […] (Table 1.)

S. pneumoniae B0326 M = experiment: microtiter broth serial dilution MIC, S. pneumoniae B0326 M; format: cell-based, Streptococcus pneumoniae; conditions: unit assumed
From the text: as §1

M. catarrhalis B0324 = experiment: microtiter broth serial dilution MIC, M. catarrhalis B0324; format: cell-based, Moraxella catarrhalis; conditions: unit assumed
From the text: as §1

S. pyogenes B0545 M = experiment: microtiter broth serial dilution MIC, S. pyogenes B0545 M; format: cell-based, Streptococcus pyogenes; conditions: S. pyogenes B0545 M (efflux resistant strain); unit assumed
From the text: as §1

S. pneumoniae B0541 = experiment: microtiter broth serial dilution MIC, S. pneumoniae B0541; format: cell-based, Streptococcus pneumoniae; conditions: unit assumed
From the text: as §1

S. aureus B0329 = experiment: microtiter broth serial dilution MIC, S. aureus B0329; format: cell-based, Staphylococcus aureus; conditions: unit assumed
From the text: as §1

S. pyogenes B0543 iMLS = experiment: microtiter broth serial dilution MIC, S. pyogenes B0543 iMLS; format: cell-based, Streptococcus pyogenes; conditions: S. pyogenes B0543 iMLS (inducible resistant strain); unit assumed
From the text: as §1

H. influenzae B0529 = experiment: microtiter broth serial dilution MIC, H. influenzae B0529; format: cell-based, Haemophilus influenzae; conditions: unit assumed
From the text: as §1

E. coli B0001 = experiment: microtiter broth serial dilution MIC, E. coli B0001; format: cell-based; conditions: unit assumed
From the text: as §1

Compound	MIC (S. pyogenes B0542) [µg/mL]	MIC (S. pneumoniae B0326 M) [µg/mL]	MIC (M. catarrhalis B0324) [µg/mL]	MIC (S. pyogenes B0545 M) [µg/mL]	MIC (S. pneumoniae B0541) [µg/mL]	MIC (S. aureus B0329) [µg/mL]	MIC (S. pyogenes B0543 iMLS) [µg/mL]	MIC (H. influenzae B0529) [µg/mL]	MIC (E. coli B0001) [µg/mL]
CC[C@H]1OC(=O)[C@H](C)[C@@H](O[C@H]2C[C@@](C)(OC)[C@@H](O)[C@H](C)O2)[C@H](C)[C@@H](O[C@@H]2O[C@H](C)C[C@H](N(C)C)[C@H]2O)[C@](C)(O)C[C@@H](C)CN[C@H](C)[C@@H](O)[C@]1(C)O [9-Deoxo-9a-aza-9a-homoerythromycin]	0.125 (≈ 0.17 µM)	16 (≈ 21.8 µM)	1 (≈ 1.36 µM)	16 (≈ 21.8 µM)	0.25 (≈ 0.34 µM)	4 (≈ 5.44 µM)	32 (≈ 43.5 µM)	0.5 (≈ 0.68 µM)	4 (≈ 5.44 µM)
CC[C@H]1OC(=O)[C@H](C)[C@@H](O[C@H]2C[C@@](C)(OC)[C@@H](O)[C@H](C)O2)[C@H](C)[C@@H](O[C@@H]2O[C@H](C)C[C@H](N(C)C)[C@H]2O)[C@](C)(O)C[C@@H](C)NC(=O)[C@H](C)[C@@H](OC)[C@]1(C)O [Ex. 5, 11-O-METHYL-8A-AZA-8A-HOMOERYTHROMYCIN]	0.125 (≈ 0.164 µM)	32 (≈ 41.9 µM)	0.125 (≈ 0.164 µM)	16 (≈ 21 µM)	0.125 (≈ 0.164 µM)	0.5 (≈ 0.655 µM)	4 (≈ 5.24 µM)	1 (≈ 1.31 µM)	16 (≈ 21 µM)
CC[C@H]1OC(=O)[C@H](C)[C@@H](O[C@H]2C[C@@](C)(OC)[C@@H](O)[C@H](C)O2)[C@H](C)[C@@H](O[C@@H]2O[C@H](C)C[C@H](N(C)C)[C@H]2O)[C@](C)(O)C[C@@H](C)CN[C@H](C)[C@@H](OC)[C@]1(C)O [Ex. 3, 11-O-METHYL-9-DEOZO-9A-AZA-9A-HOMOERYTHROMYCIN]	0.125 (≈ 0.167 µM)	8 (≈ 10.7 µM)	0.125 (≈ 0.167 µM)	4 (≈ 5.34 µM)	0.125 (≈ 0.167 µM)	1 (≈ 1.34 µM)	16 (≈ 21.4 µM)	0.5 (≈ 0.668 µM)	2 (≈ 2.67 µM)
8a-Aza-8a-homoerythromycin	0.25	64	2	32	0.125	2	8	1	16
